# Source: patent publication EP0385445A2, “Method of forming a suspension and composition formed by said method” (Horikoshi, Isamu, priority 1989, dated 1990)
# Where a SMILES comes first, the peptide text is derived from it. Bridges are numbered along the chain shown (N, C = ends).
# How the values were obtained:
# [1] = Concentration of eel calcitonin in blood after injection into the duodenum (Example 11); assay type: in vivo, Wistar male rats; details: male, Wistar, rat, 50 ug per rat, 100 µg/ml, 0.5 ml into the duodenum
# Method: Wistar male rats each weighing ca. 200 g were cannulated at the duodenum and tail vein under anesthetization with either and restrained in Bollman cages. […] A control group was injected with 0.5 ml of PBS(-), and a calcitonin control group was injected with 0.5 ml of a solution of calcitonin in phosphate buffer saline (100 µg/ml). Blood samples were taken from these control-groups according to the same schedule as in the case of the emulsion treated group. Thirty minutes before the administration of calciton, calcium chloride in physiological saline was administered intraperitoneally in an amount of 60 mg/kg in order to stimulate the secretion of endogenous calcitonin. Each rat group consisted of 6 animals.
# [2] = Oral absorption of lipid-soluble drugs reduced to microspheres with MFGM; details: drug reduced to microspheres with MFGM
# [3] = Measurement of emulsion activity (light transmittance); assay type: physicochemical; details: emulsion containing the labelled fat or oil; Fig. 6
# Method: After heating at 40 - 45°C for 5 minutes, the mixture was stirred with a Polytron homogenizer at a maximum speed for 1 minute to obtain an emulsion (which contained 5 wt% of the oil).
# Each of the emulsions was put into a test tube, which was readjusted to a vertical position and left to stand at room temperature. At given time intervals, 0.2-ml portions of each emulsion were collected from the bottom of the test tube and mixed with 3.8 ml of an aqueous solution of 0.1% sodium dodecylsulfate. The light transmittance of each sample was measured under various conditions and the results of measurements are shown in Figs. 3 - 6.
# [4] = Absorption of vitamin A through lymphatic vessels after injection of emulsions into the loop of small intestines; assay type: in vivo, Wistar male rats
# Method: Wistar male rats each weighing about 400 g were starved for 24 hours. The starved rats were anesthetized by intraperitoneal administration of pentobarbital. Thereafter, the rats were incised in the belly and silicon cannulas were inserted into the area between the pylorus of the stomach and the duodenum and into the ileocecal area. Through the upper cannula, liquid drugs (5 ml) composed of the emulsions prepared in Example 1 were injected into the loop of small intestines (duodenum, jejunum and ileum) and the cannula was closed with a clamp.
# Blood and lymph fluid were collected from the hip artery and the lymph in the thoracic duct at given time intervals and the concentrations of vitamin A in the two fluids were measured. A similar experiment was conducted on biliary fistula rats from which bile was excreted through a cannula inserted into the bile duct, and comparison was made with intact rats which had not received such a treatment.
# […] After extraction with cyclohexane, the concentration of vitamin A in each sample was measured by fluorometry at 480 nm with fluorescence excited at 340 nm. After being absorbed by the small intestines, vitamin A forms chylomicron, the greater part of which is known to be transferred into the lymph system, not the blood system.
# [5] = rat, in vivo
# Method: Wistar male rats each weighing ca. 300 g were starved overnight. Thereafter, their skin above the right common carotid artery was incised and a cannula was inserted into the artery. […] The so prepared emulsion was administered orally to the rats. […] The dose of hydrocortisone was 1.5 mg/kg. After hydrocortisone administration, blood samples were taken at regular time intervals. Feces and urine were collected and the rats were killed 49 hours after the administration. The digestive tracts, their contents and various organs were separated and the content of hydrocortisone in each site was determined by radioactivity measurement.
molecule,measurement,setting,value
CC(C)C[C@H](NC(=O)[C@H](CCCCN)NC(=O)CNC(=O)[C@H](CC(C)C)NC(=O)[C@@H](NC(=O)[C@@H]1CSSC[C@H](N)C(=O)N[C@@H](CO)C(=O)N[C@@H](CC(N)=O)C(=O)N[C@@H](CC(C)C)C(=O)N[C@@H](CO)C(=O)N[C@@H]([C@@H](C)O)C(=O)N1)C(C)C)C(=O)N[C@@H](CO)C(=O)N[C@@H](CCC(N)=O)C(=O)N[C@@H](CCC(=O)O)C(=O)N[C@@H](CC(C)C)C(=O)N[C@@H](Cc1c[nH]cn1)C(=O)N[C@@H](CCCCN)C(=O)N[C@@H](CC(C)C)C(=O)N[C@@H](CCC(N)=O)C(=O)N[C@H](C(=O)N[C@@H](Cc1ccc(O)cc1)C(=O)N1CCC[C@H]1C(=O)N[C@@H](CCCNC(=N)N)C(=O)N[C@H](C(=O)N[C@@H](CC(=O)O)C(=O)N[C@H](C(=O)NCC(=O)N[C@@H](C)C(=O)NCC(=O)N[C@H](C(=O)N1CCC[C@H]1C(N)=O)[C@@H](C)O)C(C)C)[C@@H](C)O)[C@@H](C)O [Calcitonin treated] (H-CSNLSTCVLGKLSQELHKLQTYPRTDVGAGTP-NH2; disulfide 1-7 (inferred); N-terminus and C-terminus assumed),level at 0 h,[1]; 0,0.1 ± 0.08 ng/mL
same,level at 0.5 h,[1]; 30 min.,0.7 ± 0.09 ng/mL
same,level at 1 h,[1]; 60 min.,0.7 ± 0.22 ng/mL
same,level at […],[1]; 90 min.,0.8 ± 0.31 ng/mL
same,level at 2 h,[1]; 120 min.,0.6 ± 0.4 ng/mL
COC1=C(OC)C(=O)C(CCCCCCCCCCO)=C(C)C1=O [avan],ability of MFGM to promote the absorption,[2],also observed
CCCCCCCC/C=C\CCCCCCCC(=O)OCC(O)CO (stereo not drawn) [monoolein],increase in emulsion activity,[3],least increase
CCCCCCCC/C=C\CCCCCCCC(=O)O [oleic acid],concentration of vitamin A in lymph (ranking),"[4]; intact rats, emulsion in labelled fat or oil, content 5%, vitamin A 2.5 mg per rat, Fig. 9",lowest level
same,increase in emulsion activity,[3],highest increase
Tween 80,residual in the body,[5],12.41 % of dose
vitamin A,concentration of vitamin A in lymph,"[4]; rat, in vivo",dropped to very low levels
same,vitamin A in the blood,"[4]; rat, in vivo",hardly detectable
